Consider two molecules from paper PMC3861733 (Molecular & Cellular Proteomics : MCP, 2013).

One data set addresses T1, Saci-PP2A (Sulfolobus acidocaldarius, UniProt Q4JAD1).
T1 sequence (Q4JAD1 1-293): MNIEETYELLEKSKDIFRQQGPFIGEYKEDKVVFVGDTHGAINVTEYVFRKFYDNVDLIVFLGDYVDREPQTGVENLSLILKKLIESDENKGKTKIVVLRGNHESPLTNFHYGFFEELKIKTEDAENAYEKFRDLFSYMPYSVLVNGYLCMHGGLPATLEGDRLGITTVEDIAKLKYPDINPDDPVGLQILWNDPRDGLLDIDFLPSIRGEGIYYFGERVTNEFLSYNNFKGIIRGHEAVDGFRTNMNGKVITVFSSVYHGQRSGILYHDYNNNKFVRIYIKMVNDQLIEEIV
Put plainly: malachite green phosphate release assay, inhibition. The data set is classed as biochemical. Particulars: read-out: % activity at 10 nM.

Substrate in the data set “purified protein”: O=[N+]([O-])c1ccc(OP(=O)(O)O)cc1
Put plainly: purified protein. The settings on record: 0.1 M HEPES/KOH pH 6.5, 70 °C, substrate inhibition above 2 mM. The data set is classed as biochemical, Sulfolobus acidocaldarius.

In the case of `C=C1[C@@H](O)[C@@H]2O[C@]3(CC[C@H](/C=C/[C@@H](C)[C@@H]4CC(C)=C[C@@]5(O[C@H](C[C@@](C)(O)C(=O)O)CC[C@H]5O)O4)O3)CC[C@H]2O[C@@H]1[C@@H](O)C[C@H](C)[C@H]1O[C@@]2(CCCCO2)CC[C@H]1C` [okadaic acid], at Saci-PP2A, the activity at 0.01 µM worked out at 56%.

B1: Saci-PTP (Sulfolobus acidocaldarius DSM 639) (protein)
chain: MYWVKKHVIGGSAIPYTQDEIIGWINEGVKRVLVLPEEFEIDEAWGSLEYYISVLKSFNIEYLYSPIPDGRAPSENQFLEIYKWLRKDKGNLVHCVGGIGRTGTILASYLVLEENMSAEEAIEEVRRVRPGAVQTYEQELFVFKVEKMKDKWKIL
Consider B1, for which, in the data set “purified protein”, the Vmax – broadly, the top rate of the reaction or transport when substrate is in excess – came to 3.7 µmol/min/mg.
